From patent publication US12064426B2, “Selective inhibitors of ROCK1 and ROCK2 protein kinases and uses thereof” (GENOSCO Inc., priority 2021, dated 2024)

Assays:
[1] = biological target: T1, Recombinant ROCK2 (amino acids 5-554) (Homo sapiens, UniProt O75116); assay: ROCK inhibition assay, LANCE Ultra TR-FRET kinase assay (ROCK2); format: biochemical; details: 4 μM ATP, 50 nM ULight-CREBtide substrate
T1 construct: ROCK2 (amino acids 5-554); by word order, ROCK2 from SignalChem
How it was run: (§1)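 LANCE Ultra TR-FRET kinase assay with recombinant ROCK1 (aa 1-477) or ROCK2 (aa 5-554), 50 nM ULight-CREBtide and ATP at 1 μM (ROCK1) or 4 μM (ROCK2) in HEPES pH 7.5 with MgCl2, 1 h at room temperature. EDTA stop with Eu anti-phospho-CREB Ser133 antibody; 665/615 nm read gives IC50.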

[2] = biological target: T2, Recombinant ROCK1 (amino acids 1-477) (Homo sapiens, UniProt Q13464); assay: ROCK inhibition assay, LANCE Ultra TR-FRET kinase assay (ROCK1); format: biochemical; details: 1 μM ATP, 50 nM ULight-CREBtide substrate
T2 construct: Recombinant ROCK1 (amino acids 1-477); by word order, ROCK1 from Carna Biosciences
T2 sequence (Q13464 1-477): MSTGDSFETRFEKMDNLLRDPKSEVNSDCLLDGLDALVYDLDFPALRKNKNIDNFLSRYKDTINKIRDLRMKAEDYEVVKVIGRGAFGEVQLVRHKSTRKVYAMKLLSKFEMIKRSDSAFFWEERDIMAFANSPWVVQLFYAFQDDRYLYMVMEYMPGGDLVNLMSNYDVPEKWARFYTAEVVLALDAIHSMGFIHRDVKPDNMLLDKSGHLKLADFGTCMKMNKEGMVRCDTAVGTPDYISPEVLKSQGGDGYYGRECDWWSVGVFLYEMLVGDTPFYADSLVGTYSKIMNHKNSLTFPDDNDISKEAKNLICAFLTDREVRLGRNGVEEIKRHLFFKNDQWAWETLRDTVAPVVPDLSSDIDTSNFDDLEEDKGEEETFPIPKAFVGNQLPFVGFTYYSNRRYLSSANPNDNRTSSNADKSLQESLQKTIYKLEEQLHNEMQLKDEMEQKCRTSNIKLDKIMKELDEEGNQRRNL
How it was run: as §1

T1 sequence (O75116 5-554): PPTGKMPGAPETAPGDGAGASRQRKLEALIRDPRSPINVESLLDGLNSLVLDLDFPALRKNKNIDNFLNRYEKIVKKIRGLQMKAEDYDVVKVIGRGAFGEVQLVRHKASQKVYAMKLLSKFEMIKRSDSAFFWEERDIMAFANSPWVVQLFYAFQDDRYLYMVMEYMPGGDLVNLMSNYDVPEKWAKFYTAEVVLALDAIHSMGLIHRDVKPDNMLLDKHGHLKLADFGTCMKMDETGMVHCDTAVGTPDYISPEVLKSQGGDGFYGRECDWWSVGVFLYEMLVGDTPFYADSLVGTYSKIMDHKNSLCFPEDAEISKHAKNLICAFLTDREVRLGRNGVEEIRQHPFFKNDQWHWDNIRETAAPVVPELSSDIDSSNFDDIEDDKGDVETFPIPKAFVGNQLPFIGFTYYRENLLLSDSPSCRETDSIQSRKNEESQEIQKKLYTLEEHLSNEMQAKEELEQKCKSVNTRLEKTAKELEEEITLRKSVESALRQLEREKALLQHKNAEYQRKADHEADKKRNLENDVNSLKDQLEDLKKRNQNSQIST

Row | SMILES | IC50 [1] [nM] | IC50 [2] [nM]
1 | O=C(Nc1cccc(Cn2ccc3cc(-c4c[nH]nc4Cl)ccc3c2=O)c1)C1COC1 [Compound 346] | 10 to 100 | 101 to 500
2 | CC(=O)Nc1cccc(Cn2ccc3cc(-c4conc4C)ccc3c2=O)c1 [Compound 347] | 10 to 100 | 101 to 500
3 | Cc1nocc1-c1ccc2c(=O)n(Cc3cccc(NC(=O)C4COC4)c3)ccc2c1 [Compound 348] | 10 to 100 | 11 to 100
4 | Cc1nocc1-c1ccc2c(=O)n(Cc3cccc(NC(=O)c4ccc(F)cc4)c3)ccc2c1 [Compound 349] | 10 to 100 | 11 to 100
5 | Cc1nocc1-c1ccc2c(=O)n(Cc3cc(F)cc(NC(=O)c4ccccn4)c3)ccc2c1 [Compound 350] | 10 to 100 | 101 to 500
6 | CC(=O)Nc1cc(F)cc(Cn2ccc3cc(-c4conc4C)ccc3c2=O)c1 [Compound 351] | 10 to 100 | 101 to 500
7 | CC(=O)Nc1cccc(Cn2ccc3cc(-c4cn[nH]c4)ccc3c2=O)c1 [Compound 352] | 10 to 100 | 101 to 500
8 | CC(=O)Nc1cc(F)cc(Cn2ccc3cc(-c4ccnc(N)c4)ccc3c2=O)c1 [Compound 353] | 100 to 500 | > 501
9 | COc1cccc(Cn2cnc3cc(-c4cn[nH]c4)ccc3c2=O)c1 [Compound 354, 3-(3-methoxybenzyl)-7-(1H-pyrazol-4-yl)quinazolin-4(3H)-one] | 10 to 100 | 11 to 100
10 | COc1cccc(Cn2cnc3cc(-c4c[nH]nc4C)ccc3c2=O)c1 [Compound 355] | 10 to 100 | 11 to 100
11 | COc1cccc(Cn2cnc3cc(-c4conc4C)ccc3c2=O)c1 [Compound 357] | 10 to 100 | 11 to 100
12 | COc1cccc(Cn2cnc3cc(-c4ccnn4C)ccc3c2=O)c1 [Compound 358] | 10 to 100 | 11 to 100
13 | COc1cccc(Cn2cnc3cc(-c4c[nH]nc4C(F)F)ccc3c2=O)c1 [Compound 359] | < 10 | 11 to 100
14 | COc1cc(F)cc(Cn2cnc3cc(-c4c[nH]nc4C(F)F)ccc3c2=O)c1 [Compound 360] | < 10 | 11 to 100
15 | COc1cc(F)cc(Cn2cnc3cc(-c4c[nH]nc4Cl)ccc3c2=O)c1 [Compound 361] | < 10 | 11 to 100
16 | COc1cccc(Cn2cnc3cc(-c4c[nH]nc4Cl)ccc3c2=O)c1 [Compound 362] | < 10 | 11 to 100
17 | COc1cccc(Cn2cnc3cc(-c4ccncc4)ccc3c2=O)c1 [Compound 363] | 10 to 100 | 11 to 100
18 | COc1cccc(Cn2cnc3cc(-c4ccnc(N)c4)ccc3c2=O)c1 [Compound 364] | 10 to 100 | 11 to 100
19 | CNC(=O)c1cccc(Cn2cnc3cc(-c4cn[nH]c4)ccc3c2=O)c1 [Compound 366, N-methyl-3-((4-oxo-7-(1H-pyrazol-4-yl)quinazolin-3(4H)-yl)methyl)benzamide] | < 10 | 11 to 100
20 | CNC(=O)c1cccc(Cn2cnc3cc(-c4cn[nH]c4C(F)(F)F)ccc3c2=O)c1 [Compound 367] | < 10 | 11 to 100

Row | SMILES | IC50 [1] [nM] | IC50 [2] [nM]
21 | [2H]C([2H])([2H])NC(=O)c1cccc(Cn2cnc3cc(-c4cn[nH]c4C(F)(F)F)ccc3c2=O)c1 [Compound 368] | < 10 | 11 to 100
22 | CC(C)NC(=O)c1cccc(Cn2cnc3cc(-c4cn[nH]c4C(F)(F)F)ccc3c2=O)c1 [Compound 369] | < 10 | 11 to 100
23 | O=C(NCCc1ccncc1)c1cccc(Cn2cnc3cc(-c4cn[nH]c4C(F)(F)F)ccc3c2=O)c1 [Compound 370] | < 10 | < 10
24 | O=C(NCc1ccccc1)c1cccc(Cn2cnc3cc(-c4cn[nH]c4C(F)(F)F)ccc3c2=O)c1 [Compound 371] | 10 to 100 | 101 to 500
25 | O=C(NCc1ccncc1)c1cccc(Cn2cnc3cc(-c4cn[nH]c4C(F)(F)F)ccc3c2=O)c1 [Compound 372] | < 10 | < 10
26 | CS(=O)(=O)Nc1ccc(CNC(=O)c2cccc(Cn3cnc4cc(-c5cn[nH]c5C(F)(F)F)ccc4c3=O)c2)cc1 [Compound 373] | < 10 | 11 to 100
27 | Cn1ccc(NC(=O)c2cccc(Cn3cnc4cc(-c5cn[nH]c5C(F)(F)F)ccc4c3=O)c2)n1 [Compound 374] | < 10 | 11 to 100
28 | O=C(Nc1ccon1)c1cccc(Cn2cnc3cc(-c4cn[nH]c4C(F)(F)F)ccc3c2=O)c1 [Compound 375] | 10 to 100 | 101 to 500
29 | O=C(NC1CCOCC1)c1cccc(Cn2cnc3cc(-c4cn[nH]c4C(F)(F)F)ccc3c2=O)c1 [Compound 376] | < 10 | 11 to 100
30 | O=C(NC1CCN(C2COC2)CC1)c1cccc(Cn2cnc3cc(-c4cn[nH]c4C(F)(F)F)ccc3c2=O)c1 [Compound 377] | < 10 | 11 to 100
31 | CN1CCC(NC(=O)c2cccc(Cn3cnc4cc(-c5cn[nH]c5C(F)(F)F)ccc4c3=O)c2)CC1 [Compound 378] | < 10 | < 10
32 | O=C(NCC1CCOCC1)c1cccc(Cn2cnc3cc(-c4cn[nH]c4C(F)(F)F)ccc3c2=O)c1 [Compound 379] | < 10 | 11 to 100
33 | O=C(NCC1COC1)c1cccc(Cn2cnc3cc(-c4cn[nH]c4C(F)(F)F)ccc3c2=O)c1 [Compound 380] | < 10 | 11 to 100
34 | O=C(NCC1CCNCC1)c1cccc(Cn2cnc3cc(-c4cn[nH]c4C(F)(F)F)ccc3c2=O)c1 [Compound 381] | < 10 | < 10
35 | O=C(N[C@H]1CC[C@@H](O)CC1)c1cccc(Cn2cnc3cc(-c4cn[nH]c4C(F)(F)F)ccc3c2=O)c1 [Compound 382] | < 10 | 11 to 100
36 | O=C(N[C@H]1CC[C@H](O)CC1)c1cccc(Cn2cnc3cc(-c4cn[nH]c4C(F)(F)F)ccc3c2=O)c1 [Compound 383] | < 10 | 11 to 100
37 | O=C(NCCO)c1cccc(Cn2cnc3cc(-c4cn[nH]c4C(F)(F)F)ccc3c2=O)c1 [Compound 384] | 10 to 100 | 11 to 100
38 | CS(=O)(=O)Nc1ccc(NC(=O)c2cccc(Cn3cnc4cc(-c5cn[nH]c5C(F)(F)F)ccc4c3=O)c2)cc1 [Compound 385] | 10 to 100 | 101 to 500
39 | CNC(=O)c1cc(F)cc(Cn2cnc3cc(-c4cn[nH]c4C(F)(F)F)ccc3c2=O)c1 [Compound 386] | < 10 | 11 to 100
40 | [2H]C([2H])([2H])NC(=O)c1cc(F)cc(Cn2cnc3cc(-c4cn[nH]c4C(F)(F)F)ccc3c2=O)c1 [Compound 387] | < 10 | 11 to 100

Row | SMILES | IC50 [1] [nM] | IC50 [2] [nM]
41 | CNC(=O)c1cc(F)cc(C(C)n2cnc3cc(-c4cn[nH]c4C(F)(F)F)ccc3c2=O)c1 (stereo not shown) [Compound 388] | < 10 | 11 to 100
42 | CNC(=O)c1cc(Cn2cnc3cc(-c4cn[nH]c4C(F)(F)F)ccc3c2=O)ccc1F [Compound 389] | 10 to 100 | 11 to 100
43 | CNC(=O)c1cccc(Cn2cnc3cc(-c4cn[nH]c4C(F)F)ccc3c2=O)c1 [Compound 391] | < 10 | 11 to 100
44 | [2H]C([2H])([2H])NC(=O)c1cccc(Cn2cnc3cc(-c4cn[nH]c4C(F)F)ccc3c2=O)c1 [Compound 392] | < 10 | 11 to 100
45 | O=C(NCCO)c1cccc(Cn2cnc3cc(-c4cn[nH]c4C(F)F)ccc3c2=O)c1 [Compound 393] | < 10 | 11 to 100
46 | CN(C)CCNC(=O)c1cccc(Cn2cnc3cc(-c4cn[nH]c4C(F)F)ccc3c2=O)c1 [Compound 394] | 10 to 100 | 11 to 100
47 | CN1CCC(CNC(=O)c2cccc(Cn3cnc4cc(-c5cn[nH]c5C(F)F)ccc4c3=O)c2)CC1 [Compound 395] | < 10 | < 10
48 | O=C(NCC1CCOCC1)c1cccc(Cn2cnc3cc(-c4cn[nH]c4C(F)F)ccc3c2=O)c1 [Compound 396] | < 10 | 11 to 100
49 | O=C(NCc1ccnc(F)c1)c1cccc(Cn2cnc3cc(-c4cn[nH]c4C(F)F)ccc3c2=O)c1 [Compound 397] | < 10 | 11 to 100
50 | CS(=O)(=O)c1cccc(CNC(=O)c2cccc(Cn3cnc4cc(-c5cn[nH]c5C(F)F)ccc4c3=O)c2)c1 [Compound 398] | 10 to 100 | 101 to 500
51 | CS(=O)(=O)Nc1cccc(CNC(=O)c2cccc(Cn3cnc4cc(-c5cn[nH]c5C(F)F)ccc4c3=O)c2)c1 [Compound 399] | 10 to 100 | 101 to 500
52 | CN(C)c1cccc(CNC(=O)c2cccc(Cn3cnc4cc(-c5cn[nH]c5C(F)F)ccc4c3=O)c2)c1 [Compound 400] | 10 to 100 | 101 to 500
53 | CNC(=O)c1cc(F)cc(Cn2cnc3cc(-c4cn[nH]c4C(F)F)ccc3c2=O)c1 [Compound 401] | < 10 | 11 to 100
54 | [2H]C([2H])([2H])NC(=O)c1cc(F)cc(Cn2cnc3cc(-c4cn[nH]c4C(F)F)ccc3c2=O)c1 [Compound 402] | < 10 | 11 to 100
55 | CNC(=O)c1cncc(Cn2cnc3cc(-c4cn[nH]c4Cl)ccc3c2=O)c1 [Compound 403] | 100 to 500 | > 501
56 | CNC(=O)c1cccc(Cn2cnc3cc(-c4cn[nH]c4Cl)ccc3c2=O)c1 [Compound 404] | < 10 | < 10
57 | [2H]C([2H])([2H])NC(=O)c1cccc(Cn2cnc3cc(-c4cn[nH]c4Cl)ccc3c2=O)c1 [Compound 405] | < 10 | < 10
58 | CNC(=O)c1cccc(C(C)n2cnc3cc(-c4cn[nH]c4Cl)ccc3c2=O)c1 (stereo not shown) [Compound 406] | < 10 | 11 to 100
59 | O=C(N[C@H]1CC[C@@H](O)CC1)c1cccc(Cn2cnc3cc(-c4cn[nH]c4Cl)ccc3c2=O)c1 [Compound 407] | < 10 | 11 to 100
